Measured values: ChEMBL document CHEMBL5316268 (J Med Chem, 2023)
pIC50: −log10 of the molar value. The source made the active and inactive calls. The calls are words filed in the database; no cut-off is given here.

Columns and labels:
EG7 = assay: Antitumor activity against mouse EG7 cells implanted in C57BL/6 mouse assessed as reduction in tumor volume at 10 to 50 mg/kg, po bid administered for 20 days; type: functional, organism-based; details: dose 10-50 mg/kg, time 20.0 day
5'-nucleotidase = 5'-nucleotidase (Homo sapiens, UniProt P21589); assay: Inhibition of CD73 in human plasma derived from esophageal cancer patient incubated for 15 mins in presence of 15N5-AMP by LC/MS analysis; type: cell-free
Chain of 5'-nucleotidase (P21589 whole entry): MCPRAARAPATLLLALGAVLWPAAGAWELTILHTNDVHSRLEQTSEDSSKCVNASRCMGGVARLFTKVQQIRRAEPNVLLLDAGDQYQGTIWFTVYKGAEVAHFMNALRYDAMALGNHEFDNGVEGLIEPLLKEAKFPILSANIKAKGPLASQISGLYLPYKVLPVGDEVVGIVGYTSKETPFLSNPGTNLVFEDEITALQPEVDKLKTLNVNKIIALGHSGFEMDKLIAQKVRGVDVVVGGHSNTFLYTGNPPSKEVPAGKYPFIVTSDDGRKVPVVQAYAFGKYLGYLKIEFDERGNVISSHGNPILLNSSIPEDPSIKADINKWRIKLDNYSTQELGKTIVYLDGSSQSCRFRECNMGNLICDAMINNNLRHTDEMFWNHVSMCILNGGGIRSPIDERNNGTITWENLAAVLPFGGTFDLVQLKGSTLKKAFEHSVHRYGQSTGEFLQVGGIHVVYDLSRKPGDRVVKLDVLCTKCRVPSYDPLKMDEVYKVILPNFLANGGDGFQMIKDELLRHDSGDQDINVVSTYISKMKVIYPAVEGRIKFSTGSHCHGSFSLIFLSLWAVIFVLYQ

`C#C[C@@]1(O)[C@@H](COC(Cc2ccc(N3CCCNC3=O)cc2)(C(=O)O)C(=O)O)O[C@@H](n2cnc3c(N)nc(Cl)nc32)[C@@H]1O` was tested, and the Activity (EG7) was “Active” and the pIC50 (5'-nucleotidase) was 10.00.
